Laboratory results published in patent US9675591B2, “Methods for treating seizure disorders and pain” (THE REGENTS OF THE UNIVERSITY OF CALIFORNIA, priority 2013, dated 2017).

What was measured:
[1] = tested on: pentylenetetrazole-induced seizures; test: Subcutaneous Metrazol seizure test (scMET); assay type: in vivo; conditions: mouse, in vivo
Description: A dose of subcutaneous pentylenetetrazole (Metrazole, MET) which induces convulsions in 97% of animals (CD97: 85 mg/kg mice or 56.4 mg/kg rats) was injected into a loose fold of skin at the neck. Animals were placed in isolation cages and observed for 30 min for the occurrence of clonic spasms persisting for at least 5 s.

MES-induced seizures [2] = test: MES seizure test, CF-1 mice, compounds given i.p. as solution; assay type: in vivo
Description: MES assays were performed at the Department of Neurology at the University of California with CF-1 mice. This study was approved by the University of California, Davis, Animal Use and Care Committee and conducted in accordance with the guidelines of Animal Use and Care of the National Institutes of Health and the University of California. For these assays, stock solutions of SKA-19 (5 mg/ml) were prepared in 5% CremophorEL (Sigma-Aldrich, St. Louis, Mo., USA) and 95% saline, diluted further with saline, and SKA-19 was administered i.p. in a volume of 10 ml/kg body weight. Animals were subjected to a 0.2-s, 60-Hz electrical stimulus through corneal electrodes (5 mm diameter stainless steel balls). The electroshock unit was adjusted to deliver a constant current of 50 mA. Immediately before stimulation, the corneal electrodes were wetted with saline to provide good electrical contact. Animals failing to show tonic hindlimb extension were scored as protected (Kokate et al., 1994).
The mouse maximal electroshock (MES) and 6 Hz seizure models were used. Motor toxicity was assessed using a modification of the horizontal screen test. ED50 values in the seizure models and TD50 values in the toxicity test were determined by nonlinear fitting of dose-response curves. […] Drugs solutions were injected intraperitoneally 10 min prior to administration of the electrical stimulus in a volume of 10 ml/kg body weight.

[3] = tested on: 6-Hz psychomotor seizures; test: 6-Hz psychomotor seizure test (ASP); assay type: in vivo, mice; conditions: Mus musculus, po, orally administered
Description: Seizures characterized by a minimal clonic phase followed by stereotyped automatistic behaviors (jaw chomping and whisker movement) were induced in mice by a low frequency (6 Hz), long-duration (3 s) stimulus. These seizures resemble automatistic behavior in patients with complex partial seizures. At varying times (0.25, 0.5, 1, 2, and 4 h) after drug treatment, individual mice (four at each time point) were challenged with sufficient current (32 or 44 mA at 6 Hz for 3 s) delivered through corneal electrodes to elicit a psychomotor seizure. Animals not displaying this behavior are considered protected.

MES-induced seizures [4] = test: Maximal electroshock (MES) seizure test, rats (ASP, methylcellulose suspension); assay type: in vivo
Description: (§1) SKA-19 was tested under the auspices of the National Institutes of Health's Anticonvulsant Screening Program (ASP). Experiments were performed in male albino CF (Carworth Farms) No. 1 mice or Sprague-Dawley rats according to the established protocols of the ASP (White et al., 2002). SKA-19 was suspended in 0.5% methylcellulose and administered in a volume that permits accuracy of dosage without excessively contributing to total body fluid (0.01 ml/g body weight for mice and 0.04 ml/10 g body weight for rats).
(§2) Animals received an electrical stimulus of 0.2 s duration (50 mA in mice and 150 mA in rat at 60 Hz) delivered via corneal electrodes primed with an electrolyte solution containing 0.5% tetracaine. Animals were restrained by hand and released immediately after stimulation to permit observation of the seizure throughout its entire course. In the initial screens to identify anticonvulsant activity mice were tested at 30 minutes and 4 hours following doses of 3, 10, 30, 100 and 300 mg/kg of SKA-19 and rats tested at time intervals between 0.25 and 4 hours following a standard oral dose of 30 mg/kg. In the subsequent, more quantitative tests at least four doses of SKA-19 (n=8 per dose) were tested at the previously determined time of peak effect (TPE). Abolition of hindlimb tonic extension indicates the test compound's ability to inhibit MES-induced seizure spread. Tonic extension is considered abolished if the hind limbs are not fully extended at 180° with the body.

MES-induced seizures [5] = test: Maximal electroshock (MES) seizure test, mice (ASP, methylcellulose suspension); assay type: in vivo; conditions: Mus musculus, ip; mice, i.p., methylcellulose suspension, time of peak effect (SKA-19: 2 h); read-out: ED50, seizure protection in the MES test
Description: as §1, §2

CA1 pyramidal neurons = test: Hippocampal slice recordings; assay type: cell-based, mouse; conditions: 10 μM, 1-s current injections (150 pA)
Description: Brain slice preparation was approved by the University of California, Irvine, Institutional Animal Care and Use Committee. Male C57BL/6 J mice (postnatal day 23) were anesthetized with halothane, decapitated, and brains transferred to an ice-cold, sucrose artificial cerebral spinal fluid (ACSF; Sigma-Aldrich). Hippocampal slices (300 μm) were prepared using a Leica VT1200S vibrating blade microtome (Leica Microsystems Inc., Buffalo Grove, Ill.). Slices were incubated at 33° C. in oxygenated (95% O2, 5% CO2) standard ACSF containing the following (mM) for at least 1 h before recordings: 126 NaCl, 2.5 KCl, 1.25 NaHPO4, 1.2 MgSO4, 10 glucose, 1.2 CaCl2, and 26 NaHCO3. Slices were submerged and continuously perfused at 2 ml/min with oxygenated ACSF at 33° C. during the current-clamp experiments. Voltage-clamp experiments were performed in the same ACSF but with 1 mM tetraethylammonium chloride (Sigma-Aldrich) and 0.5 μM tetrodotoxin (Sigma-Aldrich) added. Pyramidal CA1 neurons were visualized and identified with an upright microscope (Zeiss Axioskop Plus; Zeiss Jena, Germany) with infrared differential interference contrast optics. Recording pipettes (2-5 MΩ) were filled with intracellular solution containing (in mM): 126 K-gluconate; 4 KCl; 10 HEPES; 2 Mg-adenosine triphosphate; 0.3 Tris-guanosine triphosphate; 10 phosphocreatine, pH 7.20, 270-290 mOsm. In the current-clamp mode, depolarizing current pulses were applied from a membrane potential of −65 mV to evoke tonic firing activity. In the voltage-clamp mode, neurons were held at −55 mV and KCa currents elicited by 50-ms voltage steps to 10 mV, applied every 10 s. SKA-19 or NS309 were perfused for 10 min into the bath to allow for equilibrium. Recordings were performed in the whole-cell mode using a MultiClamp 700B amplifier (Molecular Devices), […] and sampled at 20 kHz with a Digidata 1322A digitizer (Molecular Devices). Data were acquired and analyzed with pClamp 10.2 software (Molecular Devices).

Row | Molecule | activity in the scMET test [1] | duration of protection (MES-induced seizures [2]; 10 mg/kg i.p. as solution) | duration of protective activity (MES-induced seizures [2]; MES test, 10 mg/kg i.p. as solution) | ED50 (MES-induced seizures [2]; Mus musculus, ip, 10 min, i.p. as solution, 10 min time point, read-out: ED50, seizure protection in the MES test) | onset of protection from seizures after application (MES-induced seizures [2]; i.p. as solution) | ED50 ([3]; 32 mA, 0.5-h time point) | ED50 ([3]; 44 mA, 1-h time point) | protection from MES induced seizures, initial screen (MES-induced seizures [4]; 30 mg/kg i.p.) | ED50 (MES-induced seizures [4]; Rattus norvegicus, oral (SKA-19: 4 h time point), read-out: ED50, seizure protection in the MES test) | ED50 (MES-induced seizures [5]) | termination of firing during the ongoing current train (CA1 pyramidal neurons) | effect on AP firing frequency (CA1 pyramidal neurons; holding potential -65 mV)
1 | Nc1nc2ccc(OC(F)(F)F)cc2s1 [riluzole, 2-amino-6-(trifluoromethoxy)benzothiazole, reference compound] | no significant activity | ≤ 45 min | < 1 h | 5.37 mg/kg | ≤ 5 min | 10.1 mg/kg | 11.5 mg/kg | completely protected | 2.64 mg/kg | 4.07 mg/kg | – | –
2 | NS309 [reference compound] | – | – | – | – | – | – | – | – | – | – | did not terminate firing | reduced AP firing frequency
